Laboratory results published in PubChem BioAssay AID1963423 (Molecular Pharmacology Branch, DTP, NCI, 2024).

Tested on: 439559-082-T-J2-PDC complex spheroid growth
Experiment: Anticancer human tumor 439559-082-T-J2-PDC patient-derived colon adenocarcinoma cell line growth inhibition [Asc]
Details: for IC50: curve of first compound; for viability, T/C: stronger effect = lower value
Procedure, shortened: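 Stromal components (HUVEC and hMSC) are co-assembled with the cancer cells into multicellular spheroids. Drugs are then added singly or paired, at concentrations falling by half-log increments from a clinically achievable maximum, capped at 10 microM without known Cmax.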
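Also: spheroids exposed to agents for 7 days starting day 3 after seeding.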
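For viability, T/C in this document: percent of DMSO vehicle control viability with 100% = vehicle.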

- IC50 (second compound 0.00316 µM): < 0.316 nM
- IC50 (second compound 0.01 µM): > 100 nM
- IC50 (second compound 0.0316 µM): > 100 nM
- IC50 (second compound 0.1 µM): > 100 nM
- IC50 (second compound 0.316 µM): > 100 nM
- IC50 (second compound 1 µM): > 100 nM
SMILES: Cn1ncnc1[C@H]1c2n[nH]c(=O)c3cc(F)cc(c23)N[C@@H]1c1ccc(F)cc1 + CNC(C)C(=O)NC1CN(S(=O)(=O)c2cccc(S(=O)(=O)N3CCC4CCC(C(=O)NC(c5ccccc5)c5ccccc5)N4C(=O)C(NC(=O)C(C)NC)C3)c2)CCC2CCC(C(=O)NC(c3ccccc3)c3ccccc3)N2C1=O
- viability, T/C (second compound 0.00316 µM, first compound 0.000316 µM): 46.7%
- viability, T/C (second compound 0.00316 µM, first compound 0.001 µM): 41.6%
- viability, T/C (second compound 0.00316 µM, first compound 0.00316 µM): 38.5%
- viability, T/C (second compound 0.00316 µM, first compound 0.01 µM): 46.7%
- viability, T/C (second compound 0.00316 µM, first compound 0.0316 µM): 56.8%
- viability, T/C (second compound 0.00316 µM, first compound 0.1 µM): 45%
- viability, T/C (second compound 0.01 µM, first compound 0.000316 µM): 101%
- viability, T/C (second compound 0.01 µM, first compound 0.001 µM): 101%
- viability, T/C (second compound 0.01 µM, first compound 0.00316 µM): 105%
- viability, T/C (second compound 0.01 µM, first compound 0.01 µM): 89%
- viability, T/C (second compound 0.01 µM, first compound 0.0316 µM): 95.2%
- viability, T/C (second compound 0.01 µM, first compound 0.1 µM): 89.1%
- viability, T/C (second compound 0.0316 µM, first compound 0.000316 µM): 102%
- viability, T/C (second compound 0.0316 µM, first compound 0.001 µM): 94.8%
- viability, T/C (second compound 0.0316 µM, first compound 0.00316 µM): 101%
- viability, T/C (second compound 0.0316 µM, first compound 0.01 µM): 88.9%
- viability, T/C (second compound 0.0316 µM, first compound 0.0316 µM): 104%
- viability, T/C (second compound 0.0316 µM, first compound 0.1 µM): 104%
- viability, T/C (second compound 0.1 µM, first compound 0.000316 µM): 93.4%
- viability, T/C (second compound 0.1 µM, first compound 0.001 µM): 101%
- viability, T/C (second compound 0.1 µM, first compound 0.00316 µM): 97.2%
- viability, T/C (second compound 0.1 µM, first compound 0.01 µM): 92.4%
- viability, T/C (second compound 0.1 µM, first compound 0.0316 µM): 103%
- viability, T/C (second compound 0.1 µM, first compound 0.1 µM): 104%
- viability, T/C (second compound 0.316 µM, first compound 0.000316 µM): 99.8%
- viability, T/C (second compound 0.316 µM, first compound 0.001 µM): 93.5%
- viability, T/C (second compound 0.316 µM, first compound 0.00316 µM): 93.1%
- viability, T/C (second compound 0.316 µM, first compound 0.01 µM): 88.1%
- viability, T/C (second compound 0.316 µM, first compound 0.0316 µM): 97%
- viability, T/C (second compound 0.316 µM, first compound 0.1 µM): 99.7%
- viability, T/C (second compound 1 µM, first compound 0.000316 µM): 74.5%
- viability, T/C (second compound 1 µM, first compound 0.001 µM): 72.2%
- viability, T/C (second compound 1 µM, first compound 0.00316 µM): 79.5%
- viability, T/C (second compound 1 µM, first compound 0.01 µM): 80.8%
- viability, T/C (second compound 1 µM, first compound 0.0316 µM): 87%
- viability, T/C (second compound 1 µM, first compound 0.1 µM): 81.6%
